Measurements published in US5726165A, “Derivatives of 4-(2-aminoethyl)phenoxymethyl-phosphonic and -phosphinic acid and pharmaceutical and veterinary uses therefor” (SmithKline Beecham p.l.c., priority 1994, dated 1998).
Where a name gives a salt, the structure may show the parent alone.

Tests used:
human β3-adrenoceptor = biological target: T1, human β3-adrenoceptor (Homo sapiens, UniProt P13945); experiment: β3-adrenoceptor-mediated adenylyl cyclase activity (agonist); assay type: biochemical; conditions: CHO cell plasma membranes; for EC50: agonist concentration producing 50% activation of adenylyl cyclase, cAMP over 20 minutes, read-out: Beta-3 EC50; for Emax: maximum response relative to that produced by (-) isoprenaline, read-out: Beta-3 (IA), intrinsic activity
T1 construct: expressed in transfected cells; host or cells: CHO cells (stably transfected subclones; membranes)
T1 sequence (P13945 whole entry): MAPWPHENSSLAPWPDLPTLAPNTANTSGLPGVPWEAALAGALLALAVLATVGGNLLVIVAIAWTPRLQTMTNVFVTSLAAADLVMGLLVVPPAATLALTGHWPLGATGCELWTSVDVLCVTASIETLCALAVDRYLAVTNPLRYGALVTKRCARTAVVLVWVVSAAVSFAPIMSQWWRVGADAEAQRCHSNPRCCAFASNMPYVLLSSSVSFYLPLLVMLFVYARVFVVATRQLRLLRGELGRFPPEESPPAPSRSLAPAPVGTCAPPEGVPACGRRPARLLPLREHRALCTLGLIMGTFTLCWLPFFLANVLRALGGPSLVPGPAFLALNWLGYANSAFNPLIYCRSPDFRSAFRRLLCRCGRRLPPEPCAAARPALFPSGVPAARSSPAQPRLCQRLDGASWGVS
Description: (§1) Antagonist and Agonist Activity at Human β1, β2, and β3 -Adrenoceptors.
(§2) Subclones of CHO cells are stably transfected with each of the human β1, β2 and β3 -adrenoceptors^1. Cells are then disrupted by immersion in ice-cold lysis buffer (10 mM TRIS, 2 mM EDTA, pH 7.4) containing protease inhibitors leupeptin and benzamidine (5 μg/ml) and soyabean trypsin inhibitor (10 μg/ml). Membranes are prepared by the method of Bouvier el. al.^2 and stored in 1 ml aliquots in liquid N2 for future use.
β3 -Adrenoceptor-Mediated Adenylyl Cyclase Activity
Adenylyl cyclase activity is assayed by the method of Kirkham et. al.^3 by the addition of 40 μl (70-80 μg protein) to the incubation medium of the above CHO cell plasma membranes transfected with the human β3 -adrenoceptor. cAMP produced over 20 minutes is separated from ATP by the method of Salomon et al.^4. Agonist EC50 values and intrinsic activities are expressed as the concentration of agonist producing 50% activation of adenylyl cyclase and the maximum response produced by each agonist relative to that produced by (-) isoprenaline respectively.

human β1-adrenoceptor = biological target: T2, human β1-adrenoceptor (Homo sapiens, UniProt P08588); experiment: Antagonist binding at β1-adrenoceptors, displacement of [125I]-iodocyanopindolol; conditions: CHO cell plasma membranes; from binding IC50 by Cheng-Prusoff equation; read-out: Beta-1 Ki
T2 construct: expressed in transfected cells; host or cells: CHO cells (stably transfected subclones; membranes)
T2 sequence (P08588 whole entry): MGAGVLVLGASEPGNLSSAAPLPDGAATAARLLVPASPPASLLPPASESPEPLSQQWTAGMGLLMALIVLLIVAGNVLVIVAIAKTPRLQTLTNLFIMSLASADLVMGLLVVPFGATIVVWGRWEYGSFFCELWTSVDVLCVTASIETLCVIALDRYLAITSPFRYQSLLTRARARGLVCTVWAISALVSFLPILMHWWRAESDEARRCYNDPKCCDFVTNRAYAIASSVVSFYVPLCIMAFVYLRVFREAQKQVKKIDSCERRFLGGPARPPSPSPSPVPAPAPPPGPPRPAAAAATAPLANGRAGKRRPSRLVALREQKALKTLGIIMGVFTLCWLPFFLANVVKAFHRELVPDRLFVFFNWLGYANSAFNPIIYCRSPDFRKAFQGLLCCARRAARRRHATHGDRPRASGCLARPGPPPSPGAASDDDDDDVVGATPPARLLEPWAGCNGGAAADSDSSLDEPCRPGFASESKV
Description: as §1, §2
(§3) Antagonist Binding at β1, and β2 -Adrenoceptors
(§4) Displacement of [^125 I]-iodocyanopindolol from CHO cell plasma membranes transfected with either the human β1, or β2 -adrenoceptors is carried out by the method of Blin et. al.^5. Ki values (nM) are calculated from the binding IC50 values for each agonist, using the Cheng-Prusoff equation.

human β2-adrenoceptor = biological target: T3, human β2-adrenoceptor (Homo sapiens, UniProt P07550); experiment: Antagonist binding at β2-adrenoceptors, displacement of [125I]-iodocyanopindolol; conditions: CHO cell plasma membranes; from binding IC50 by Cheng-Prusoff equation; read-out: Beta-2 Ki
T3 construct: expressed in transfected cells; host or cells: CHO cells (stably transfected subclones; membranes)
T3 sequence (P07550 whole entry): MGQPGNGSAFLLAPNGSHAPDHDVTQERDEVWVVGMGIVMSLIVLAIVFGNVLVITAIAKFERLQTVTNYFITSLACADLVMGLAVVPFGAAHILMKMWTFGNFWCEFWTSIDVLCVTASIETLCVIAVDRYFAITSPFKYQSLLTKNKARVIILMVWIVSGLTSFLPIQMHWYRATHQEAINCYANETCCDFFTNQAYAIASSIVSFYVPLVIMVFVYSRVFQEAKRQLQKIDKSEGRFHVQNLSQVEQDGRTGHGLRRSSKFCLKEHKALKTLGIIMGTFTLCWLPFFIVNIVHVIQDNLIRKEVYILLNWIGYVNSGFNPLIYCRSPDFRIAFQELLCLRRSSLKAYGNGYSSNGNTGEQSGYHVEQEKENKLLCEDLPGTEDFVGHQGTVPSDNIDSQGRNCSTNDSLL
Description: as §1, §2, §3, §4

Compound | EC50 (human β3-adrenoceptor) [µM] | Emax (human β3-adrenoceptor) [%] | Ki (human β1-adrenoceptor) [µM] | Ki (human β2-adrenoceptor) [µM]
C[C@H](Cc1ccc(OCP(=O)(O)c2ccccc2)cc1)NC[C@H](O)COc1ccc(O)c(CO)c1 (racemic) [Example 21, (SR)-4-{2-[2-Hydroxy-3-(4-hydroxy-3-hydroxymethylphenoxy)propylamino]propyl}phenoxymethyl-phenylphosphinic acid, lithium salt] | 1.26 | > 100 | 155 | 15
C[C@H](Cc1ccc(OCP(=O)(O)OCCCOCc2ccccc2)cc1)NC[C@H](O)COc1ccc(O)c(CO)c1 [Example 17, (SR)-4-{2-[2-Hydroxy-3-(4-hydroxy-3-hydroxymethylphenoxy)propylamino]propyl}phenoxymethylphosphonic acid, (3-benzyloxypropyl)ester, lithium salt] | 1.1 | 70 | 21 | 10
O=P(O)(COc1ccc(CCNC[C@H](O)COc2ccc(O)cc2)cc1)C1CCCCC1 [Example 29, (S)-4-{2-[2-Hydroxy-3-(4-hydroxyphenoxy)propylamino]ethyl}phenoxymethylcyclohexylphosphinic acid, lithium salt] | 1.7 | 72 | 288 | 269
